According to US7645781B2, “N-aryl-2-oxazolidinone-5-carboxamides and their derivatives” (Pfizer Inc, priority 2002, dated 2010):
Converted amounts (≈) assume the structure as drawn.

How the values were obtained:
[1] = system: Staphylococcus aureus (SAUR 9213); assay: MIC by standard agar dilution method; type: cell-based; conditions: Mueller Hinton agar, incubated overnight at 35° C., read-out: MIC
Source text: The antibacterial agents of this invention have useful activity against a variety of organisms. The in vitro activity of compounds of this invention can be assessed by standard testing procedures such as the determination of minimum inhibitory concentration (MIC) by agar dilution as described in “Approved Standard. Methods for Dilution Antimicrobial Susceptibility Tests for Bacteria That Grow Aerobically”, 3rd. ed., published 1993 by the National Committee for Clinical Laboratory Standards, Villanova, Pa., USA. The in vitro MICs of test compounds are determined by a standard agar dilution method. A stock drug solution of each analog is prepared in the preferred solvent, usually DMSO:H2O (1:3). Serial 2-fold dilutions of each sample are made using 1.0 ml aliquots of sterile distilled water. To each 1.0 ml aliquot of drug is added 9 ml of molten Mueller Hinton agar medium. The drug-supplemented agar is mixed, poured into 15×100 mm petri dishes, and allowed to solidify and dry prior to inoculation. Vials of each of the test organisms are maintained frozen in the vapor phase of a liquid nitrogen freezer. Test cultures are grown overnight at 35° C. on the medium appropriate for the organism. Colonies are harvested with a sterile swab, and cell suspensions are prepared in Trypticase Soy broth (TSB) to equal the turbidity of a 0.5 McFarland standard. A 1:20 dilution of each suspension is made in TSB. The plates containing the drug supplemented agar are inoculated with a 0.001 ml drop of the cell suspension using a Steers replicator, yielding approximately 10^4 to 10^5 cells per spot. The plates are incubated overnight at 35° C. Following incubation the Minimum Inhibitory Concentration (MIC μg/ml), the lowest concentration of drug that inhibits visible growth of the organism, is read and recorded.

Row | SMILES | MIC [1] [µg/mL] | melting point [°C]
1 | CCNC(=O)[C@H]1CN(c2ccc3c(c2)sc(=O)n3C)C(=O)O1 [Example 33, (5R)-(−)-N-Ethyl-3-(2,3-dihydro-3-methyl-2-oxo-6-benzothiazolyl)-2-oxo-5-oxazolidinecarboxamide] | 4 (≈ 12.4 µM) | 224.5 to 226
2 | Cn1c(=O)sc2cc(N3C[C@H](C(=O)NCCO)OC3=O)ccc21 [Example 34, (5R)-(−)-N-(2-Hydroxyethyl)-3-(2,3-dihydro-3-methyl-2-oxo-6-benzothiazolyl)-2-oxo-5-oxazolidinecarboxamide] | 8 (≈ 23.7 µM) | 217 to 219
3 | CNC(=O)[C@H]1CN(c2ccc3c(c2)sc(=O)n3C(C)C)C(=O)O1 [Example 37, (5R)-(−)-N-Methyl-3-(2,3-dihydro-3-isopropyl-2-oxo-6-benzothiazolyl)-2-oxo-5-oxazolidinecarboxamide] | 2 (≈ 5.96 µM) | 172 to 173.5
4 | CC(C)n1c(=O)oc2cc(N3C[C@H](C(N)=O)OC3=O)ccc21 [Example 40, (5R)-(−)-3-(2,3-Dihydro-3-isopropyl-2-oxo-6-benzoxazolyl)-2-oxo-5-oxazolidinecarboxamide] | 4 (≈ 13.1 µM) | 182.5 to 184
5 | CNC(=O)[C@H]1CN(c2ccc(C3CCS(=O)(=O)CC3)c(F)c2)C(=O)O1 [Example 41, (5R)-(−)-N-Methyl-3-[4-(Tetrahydro-2H-thiopyran-4-yl)-3-fluorophenyl]-2-oxo-5-oxazolidinecarboxamide S,S-dioxide] | 2 (≈ 5.4 µM) | 180.5 to 182
6 | CNC(=O)[C@H]1CN(c2cc(F)c(N3CCOCC3)c(F)c2)C(=O)O1 [Example 42, (5R)-(−)-N-Methyl-3-[3,5-difluoro-4-(4-morpholinyl)phenyl]-2-oxo-5-oxazolidinecarboxamide] | 4 (≈ 11.7 µM) | 179 to 181
7 | CNC(=O)[C@H]1CN(c2cc(F)c(N3CC[S+]([O-])CC3)c(F)c2)C(=O)O1 [Example 43, (5R)-(−)-N-Methyl-3-[3,5-difluoro-4-(thiomorpholin-4-yl)phenyl]-2-oxo-5-oxazolidinecarboxamide S-oxide] | 4 (≈ 10.7 µM) | 237 to 241

Second part, the compound after the results:

Row | MIC [1] [µg/mL] | melting point [°C] | SMILES
8 | 1 (≈ 3.11 µM) | 183 to 184.5 | CC(C)n1c(=O)sc2cc(N3C[C@H](C(N)=O)OC3=O)ccc21 [Example 31, (5R)-(−)-3-(2,3-Dihydro-3-isopropyl-2-oxo-6-benzothiazolyl)-2-oxo-5-oxazolidinecarboxamide]
9 | 1 (≈ 3.25 µM) | 264 to 267 | CNC(=O)[C@H]1CN(c2ccc3c(c2)sc(=O)n3C)C(=O)O1 [Example 32, (5R)-(−)-N-Methyl-3-(2,3-dihydro-3-methyl-2-oxo-6-benzothiazolyl)-2-oxo-5-oxazolidinecarboxamide]
10 | 2 (≈ 5.89 µM) | 201 to 203 | Cn1c(=O)sc2cc(N3C[C@H](C(=O)NCCF)OC3=O)ccc21 [Example 35, (5R)-N-(2-Fluoroethyl)-3-(2,3-dihydro-3-methyl-2-oxo-6-benzothiazolyl)-2-oxo-5-oxazolidinecarboxamide]
11 | 2 (≈ 6.22 µM) | 227 to 229 | CCn1c(=O)sc2cc(N3C[C@H](C(=O)NC)OC3=O)ccc21 [Example 36, (5R)-(−)-N-Methyl-3-(2,3-dihydro-3-ethyl-2-oxo-6-benzothiazolyl)-2-oxo-5-oxazolidinecarboxamide]
12 | 1 (≈ 3.61 µM) | > 260 | Cn1c(=O)oc2cc(N3C[C@H](C(N)=O)OC3=O)ccc21 [Example 38, (5R)-(−)-3-(2,3-dihydro-3-methyl-2-oxo-6-benzoxazolyl)-2-oxo-5-oxazolidinecarboxamide]
13 | 1 (≈ 3.43 µM) | 234 to 236 | CCn1c(=O)oc2cc(N3C[C@H](C(N)=O)OC3=O)ccc21 [Example 39, (5R)-(−)-3-(2,3-Dihydro-3-ethyl-2-oxo-6-benzoxazolyl)-2-oxo-5-oxazolidinecarboxamide]
